The subject of experiment [1] is phenylalanine ammonia-lyase (PAL). Put plainly: PAL activity in crude protein extracts of treated wounded midribs. It is filed as biochemical, lettuce (iceberg, Romaine). The settings on record: 5 d at 5° C.; for PAL activity: L-cysteine 4.1 mM or melatonin 4.3 mM; for effect on PAL activity: iceberg and Romaine, vs wounded control. An excerpt:
(§1) In all tests, experimental setup began immediately upon arrival to the laboratory. 90 outer leaves were randomly selected from 18 to 22 lettuce heads that met commercial and damage-free quality standards. A midrib segment (12.5 cm) was excised from the center of each leaf and excess leaf blade tissue was trimmed parallel to the midrib. This procedure was adapted from the wounding procedure of Cantwell (2016). Each midrib was then partially sliced transversally at 1.3-cm increments along the midrib. Midribs (n=15) were immediately immersed for 30 s in one of five treatment solutions: deionized water (wounded control), L-cysteine (4.1 mM), naringenin (1.8 mM) with 20% dimethyl sulfoxide (DMSO), serotonin (2.8 or 5.7 mM) or melatonin (4.3 mM) with 0.50% DMSO. Immediately following immersion, the midribs for each treatment were patted dry using paper towels and placed (n=5) in a breathable, high-density polyethylene bag (n=3) (Narrow Profile Produce Bags [14×18 inches] Model No. S-19156, Uline®, Pleasant Prairie, WI). Unwounded control midribs were stored in the same manner. To allow for direct comparison, each cut site on each midrib was assigned an initial discoloration value on day 1 based on the coloration of the rib. Samples were stored at 5° C. with 95-98% relative humidity (RH) for 5 d, simulating commercial storage.
PAL activity was measured using a crude protein extraction following a method reported by Kim et al. (2020) with some modifications. Fresh lettuce samples (300 mg) were ground with liquid nitrogen in a pre-chilled mortar and pestle. A 0.1 mM Tris-HCl buffer (pH 8.3) was added at a 1:1 (w:v). The solution was incubated at 4° C. for 1 h and then centrifuged at 4° C., 9660×g for 15 min. Supernatants were collected in chilled tubes. Total protein content was measured using Quick Start Bradford protein assay kit (Bio-Rad, Hercules, CA, USA) and Bovine Serum Albumin (BSA) as a standard (10 mg mL^−1 in deionized water). Protein concentration was calculated based on the absorbance at 595 nm measured with a NanoDrop (One Microvolume UV-Vis Spectrophotometer, Thermo Scientific, Wilmington, DE, USA) and the standard curve. For the PAL activity test, 150 μL aliquots of the protein extract were incubated in a reaction buffer containing 0.1 mM Tris-HCl buffer (pH 8.3), 5 mM dithiothreitol (DTT), and 5 mM phenylalanine. Reaction mixtures were incubated at 37° C. for 90 min and stopped with the addition of 40 μL of 30% acetic acid. Reaction products were extracted with 600 μL of ethyl acetate and then centrifuged at 22° C., 9660×g for 5 min. The supernatant was dried in a speed vac and re-dissolved in 100 μL of 50% methanol. The final extract (10 μL) was analyzed by HPLC using the method previously described in Section 2.4.
The imaging data (a* value), enzyme activity (PAL and PPO), and metabolite (chlorogenic acid) results were expressed as mean±standard error and analyzed by lettuce type (iceberg or Romaine). For imaging data, an unpaired t-test was used to identify differences within a treatment throughout storage and among treatment groups at each time point. Treatment groups were defined as wounded, unwounded, L-cysteine, and melatonin. […] Analyses of variance were performed for PAL, PPO, and metabolite analyses using SAS software (version 9.4; SAS Institute, Cary, NC) to identify differences among treatment groups. Differences among treatments groups were separated by Tukey's Honest Significant Difference (HSD) test with a confidence level of 95%. The correlation between visual rating and a* value was evaluated for significance via an F-test, from which the P-value of the correlation was calculated.

Experiment [2] deals with chlorogenic acid formation in lettuce midribs. In words: Chlorogenic acid concentration in treated wounded midribs (HPLC). It counts as in vivo, lettuce (iceberg, Romaine). The note with it: 5 d at 5° C.; for chlorogenic acid concentration: L-cysteine 4.1 mM or melatonin 4.3 mM; for effect on chlorogenic acid concentration: iceberg and Romaine, vs wounded.
Text: as §1
Unwounded, wounded, and compound-treated wounded midrib samples were collected for untargeted metabolite analysis to identify global metabolite changes in response to melatonin application and targeted metabolite analysis to quantify chlorogenic acid a major caffeoyl compound in lettuce. For both targeted and untargeted metabolite analyses, fresh samples (500-800 mg) of the midribs from each treatment (n=3) were weighed, then immediately frozen in liquid nitrogen and stored at −80° C. for subsequent metabolite extraction. Frozen samples were extracted with a 50% methanol extraction solution containing a 1:1 (v:v) of methanol with deionized water. Samples were completely submerged in a 1:1.5 (w:v) of the sample weight (mg) to extraction solution volume (μL), respectively, and incubated at 65° C. for 90 min and then centrifuged at 9660×g for 10 min (MC-12 High Speed Micro Centrifuge, Benchmark Scientific, Edison, NJ). The supernatant was transferred to a new tube and filtered with a 0.45 μm filter (Choice, Thermo Scientific, Wilmington, DE). An aliquot of 400 μL was vacuum-dried.
For chlorogenic acid quantification, vacuum-dried samples were resuspended with 50 μL of 50% methanol. A 10 μL volume of extract was analyzed on an UltiMate 3000 High Performance Liquid Chromatography (HPLC) system (Thermo Fisher Scientific, Ward Hill, MA, USA) equipped with a diode array detector (DAD) in the UV-VIS region 200 to 500 nm. The compounds were separated on an Acclaim™ RSLC PA2 column (150 mm×2.1 mm; 2.2 μm) (Thermo Fisher Scientific, Ward Hill, MA, USA) coupled with a C18 guard column (10 mm×3 mm; 5 μm). The mobile phase consisted of solvent A (0.1% formic acid (v/v) in water) and solvent B (100% acetonitrile), and the gradient as follows: 5% to 20% increase of solvent B at 0.3 to 0.4 min, 20% to 25% increase solvent B at 5.25 to 12.5 min, 25% to 95% increase solvent B at 12.5 to 16.5 min, and 95% solvent B at 16.5 to 20 min. The flow rate was 0.4 mL min^−1 and the column temperature was 40° C. The level of chlorogenic acid was quantified based on the peak area at 328 nm and the standard curve using authentic standard (Sigma Aldrich; St. Louis, MO, USA).
The imaging data (a* value), enzyme activity (PAL and PPO), and metabolite (chlorogenic acid) results were expressed as mean±standard error and analyzed by lettuce type (iceberg or Romaine). For imaging data, an unpaired t-test was used to identify differences within a treatment throughout storage and among treatment groups at each time point. Treatment groups were defined as wounded, unwounded, L-cysteine, and melatonin. […]

SMILES strings stand for the structures. Entries after “also recorded” stand apart in the source; their conditions may differ.

`N[C@@H](CS)C(=O)O` [L-cysteine]: the PAL activity was found to be 11.07 pkat mg^−1 in experiment [1] (Romaine, wounded control 9.56) and 5.43 pkat mg^−1 in experiment [1] (iceberg, wounded control 6.73). For the same molecule, in experiment [1], the “effect on PAL activity” value is listed as “no significant reduction in PAL activity”. The chlorogenic acid concentration in experiment [2] (Romaine) came out at 3.11 µg/g; in experiment [2] (iceberg), 1.55 µg/g. For the same molecule, in experiment [2], the “effect on chlorogenic acid concentration” value was “neither L-cysteine nor melatonin significantly reduced chlorogenic acid concentration”.

As to `COc1ccc2[nH]cc(CCNC(C)=O)c2c1` [melatonin], the PAL activity is given as 6.06 pkat mg^−1 in experiment [1] (Romaine, wounded control 9.56) and 7.44 pkat mg^−1 in experiment [1] (iceberg, wounded control 6.73). The “effect on PAL activity” value in experiment [1] is “no significant reduction in PAL activity; also recorded: neither enzyme activity (PAL or PPO) nor chlorogenic acid concentration were impacted; also recorded: did not significantly affect PAL or PPO enzyme activities”. The chlorogenic acid concentration in experiment [2] (Romaine) worked out at 3.11 µg/g; in experiment [2] (iceberg) it was 1.55 µg/g. Moreover, the “effect on chlorogenic acid concentration” value in experiment [2] was “neither L-cysteine nor melatonin significantly reduced chlorogenic acid concentration; also recorded: neither enzyme activity (PAL or PPO) nor chlorogenic acid concentration were impacted; also recorded: did not significantly affect PAL or PPO enzyme activities nor formation of chlorogenic acid”.

These data come from patent publication US20260314597A1, “A NOVEL APPROACH TO INTERFERE IN THE PHENYLPROPANOID BIOSYNTHETIC PATHWAY TO REDUCE PINK-RIB DISORDER IN FRESH LETTUCE” (University of Florida Research Foundation, Inc., priority 2022, published 2026).
